# Assay results as given in patent US11964953B2, “Substituted aminothiazoles as DGKzeta inhibitors for immune activation” (Bayer Aktiengesellschaft, priority 2020, dated 2024).
# Target: human DGKζ (Homo sapiens (Human), UniProt Q13574)
# Assay: Human DGKζ kinase activity inhibition assay (ADP-Glo)
# Type: biochemical
# Settings: in vitro human DGKζ kinase activity inhibition assay; read-out: IC50
# In short: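 Enzyme was C-terminally FLAG-tagged full-length recombinant human DGKζ from baculovirus-infected insect cells. Substrate preparation used octyl-β-D-glucopyranoside in 50 mM MOPS pH 7.4 with sonication; ADP generated was quantified by ADP-Glo luminescence as activity measure.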
# Sequence of human DGKζ (Q13574 other isoform, or with tags, fused parts or gaps): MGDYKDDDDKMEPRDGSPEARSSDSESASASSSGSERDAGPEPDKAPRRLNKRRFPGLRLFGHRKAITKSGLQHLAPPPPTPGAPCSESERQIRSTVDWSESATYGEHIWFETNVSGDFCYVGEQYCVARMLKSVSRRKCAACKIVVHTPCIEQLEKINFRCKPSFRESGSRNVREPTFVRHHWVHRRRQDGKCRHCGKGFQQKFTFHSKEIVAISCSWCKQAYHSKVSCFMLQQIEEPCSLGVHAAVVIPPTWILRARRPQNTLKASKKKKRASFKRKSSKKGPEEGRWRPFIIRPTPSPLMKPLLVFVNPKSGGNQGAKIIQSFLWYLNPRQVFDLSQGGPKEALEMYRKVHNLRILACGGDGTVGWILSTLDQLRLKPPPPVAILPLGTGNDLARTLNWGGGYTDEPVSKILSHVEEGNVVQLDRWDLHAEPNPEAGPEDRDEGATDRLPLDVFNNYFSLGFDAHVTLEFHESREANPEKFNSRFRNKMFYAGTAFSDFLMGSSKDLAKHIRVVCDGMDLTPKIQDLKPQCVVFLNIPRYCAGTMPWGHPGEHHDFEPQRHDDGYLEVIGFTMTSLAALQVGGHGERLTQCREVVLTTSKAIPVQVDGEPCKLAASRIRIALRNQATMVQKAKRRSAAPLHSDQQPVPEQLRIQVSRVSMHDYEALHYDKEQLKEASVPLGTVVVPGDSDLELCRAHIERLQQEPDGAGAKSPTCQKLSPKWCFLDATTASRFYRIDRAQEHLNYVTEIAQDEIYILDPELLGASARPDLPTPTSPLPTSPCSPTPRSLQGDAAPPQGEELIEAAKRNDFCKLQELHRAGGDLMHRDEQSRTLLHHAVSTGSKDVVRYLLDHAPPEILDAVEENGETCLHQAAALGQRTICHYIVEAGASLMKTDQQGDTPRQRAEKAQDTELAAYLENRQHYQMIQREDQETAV
row,IC50 [nM],Structure (SMILES)
1,88,"CC(C(N)=O)N(c1ccc(OC(F)F)c(F)c1)c1nc(N)c(C(=O)c2ccccc2)s1 (racemic) [Example 198, rac-2-[N-(4-amino-5-benzoyl-thiazol-2-yl)-4-(difluoromethoxy)-3-fluoro-anilinojpropanamide]"
2,381,"CC(C(N)=O)N(c1ccc(OC(F)F)c(Cl)c1)c1nc(N)c(C(=O)c2ccncc2)s1 (racemic) [Example 203, rac-2-[N-[4-amino-5-(pyridine-4-carbonyl)thiazol-2-yl]-3-chloro-4-(difluoromethoxy)anilino]propanamide]"
3,54,"COc1ccc(C(=O)c2sc(N(c3ccc(OC(F)F)c(F)c3)C(C)C(N)=O)nc2N)cc1 (racemic) [Example 205, rac-2-[N-[4-amino-5-(4-methoxybenzoyl)thiazol-2-yl]-4-(difluoromethoxy)-3-fluoro-anilino]propanamide]"
4,48,"CC(C(N)=O)N(c1ccc(OC(F)F)c(F)c1)c1nc(N)c(C(=O)c2ccc(Cl)cc2)s1 (racemic) [Example 206, rac-2-[N-[4-amino-5-(4-chlorobenzoyl)thiazol-2-yl]-4-(difluoromethoxy)-3-fluoro-anilino]propanamide]"
5,672,"CC(C(N)=O)N(c1ccc(OC(F)F)c(F)c1)c1nc(N)c(C(=O)c2ccncc2)s1 (racemic) [Example 208, rac-2-[N-[4-amino-5-(pyridine-4-carbonyl)thiazol-2-yl]-4-(difluoromethoxy)-3-fluoro-anilino]propanamide]"
6,183,"CC(C(N)=O)N(c1ccc(OC(F)(F)F)c(Cl)c1)c1nc(N)c(C(=O)c2ccccc2)s1 (racemic) [Example 211, rac-2-[N-(4-amino-5-benzoyl-thiazol-2-yl)-3-chloro-4-(trifluoromethoxy)anilino]propanamide]"
7,279,"CC(C(N)=O)N(c1ccc2c(c1)OC(F)(F)O2)c1nc(N)c(C(=O)c2ccncc2)s1 (racemic) [Example 215, rac-2-[[4-amino-5-(pyridine-4-carbonyl)thiazol-2-yl]-(2,2-difluoro-1,3-benzodioxol-5-yl)amino]propanamide]"
8,41,"COc1ccc(C(=O)c2sc(N(c3ccc(OC(F)(F)F)c(F)c3)C(C)C(N)=O)nc2N)cc1 (racemic) [Example 217, rac-2-[N-[4-amino-5-(4-methoxybenzoyl)thiazol-2-yl]-3-fluoro-4-(trifluoromethoxy)anilino]propanamide]"
9,64,"CC(C(N)=O)N(c1ccc(OC(F)(F)F)c(F)c1)c1nc(N)c(C(=O)c2ccc(Cl)cc2)s1 (racemic) [Example 218, rac-2-[N-[4-amino-5-(4-chlorobenzoyl)thiazol-2-yl]-3-fluoro-4-(trifluoromethoxy)anilino]propanamide]"
10,13,"CC(C(N)=O)N(c1ccc(OC(F)(F)F)c(F)c1)c1nc(N)c(C(=O)c2ccc(OC(F)F)cc2)s1 (racemic) [Example 219, rac-2-[N-[4-amino-5-[4-(difluoromethoxy)benzoyl]thiazol-2-yl]-3-fluoro-4-(trifluoromethoxy)anilino]propanamide]"
11,219,"CC(C(N)=O)N(c1ccc(OC(F)(F)F)c(F)c1)c1nc(N)c(C(=O)c2ccncc2)s1 (racemic) [Example 220, rac-2-[N-[4-amino-5-(pyridine-4-carbonyl)thiazol-2-yl]-3-fluoro-4-(trifluoromethoxy)anilino]propanamide]"
12,31,"CC(C(N)=O)N(c1ccc(OC(F)(F)F)c(F)c1)c1nc(N)c(C(=O)c2ccc(OC(F)F)nc2)s1 (racemic) [Example 221, rac-2-[N-[4-amino-5-[6-(difluoromethoxy)pyridine-3-carbonyl]thiazol-2-yl]-3-fluoro-4-(trifluoromethoxy)anilino]propanamide]"
13,108,"COc1ccc(C(=O)c2sc(N(c3ccc(OC(F)(F)F)c(Cl)c3)C(C)C(N)=O)nc2N)cc1 (racemic) [Example 222, rac-2-[N-[4-amino-5-(4-methoxybenzoyl)thiazol-2-yl]-3-chloro-4-(trifluoromethoxy)anilino]propanamide]"
14,235,"CC(C(N)=O)N(c1ccc(OC(F)(F)F)c(Cl)c1)c1nc(N)c(C(=O)c2ccc(Cl)cc2)s1 (racemic) [Example 223, rac-2-[N-[4-amino-5-(4-chlorobenzoyl)thiazol-2-yl]-3-chloro-4-(trifluoromethoxy)anilino]propanamide]"
15,45,"CC(C(N)=O)N(c1ccc(OC(F)(F)F)c(Cl)c1)c1nc(N)c(C(=O)c2ccc(OC(F)F)cc2)s1 (racemic) [Example 224, rac-2-[N-[4-amino-5-[4-(difluoromethoxy)benzoyl]thiazol-2-yl]-3-chloro-4-(trifluoromethoxy)anilino]propanamide]"

# Further lines, the molecule ahead of its results:
row,Structure (SMILES),IC50 [nM]
1,"CC(C(N)=O)N(c1ccc(Br)cc1)c1nc(N)c(C(=O)c2ccccc2)s1 (racemic) [Example 193, rac-2-(N-(4-amino-5-benzoyl-thiazol-2-yl)-4-bromo-anilino)propanamide]",35
2,"CC(C(N)=O)N(c1ccc(OC(F)F)c(Cl)c1)c1nc(N)c(C(=O)c2ccccc2)s1 (racemic) [Example 194, rac-2-[N-(4-amino-5-benzoyl-thiazol-2-yl)-3-chloro-4-(difluoromethoxy)anilino]propanamide]",66
3,"CCOc1ccc(N(c2nc(N)c(C(=O)c3ccccc3)s2)C(C)C(N)=O)cc1 (racemic) [Example 195, rac-2-(N-(4-amino-5-benzoyl-thiazol-2-yl)-4-ethoxy-anilino)propanamide]",1000
4,"CC(C(N)=O)N(c1ccc2c(c1)OCO2)c1nc(N)c(C(=O)c2ccccc2)s1 (racemic) [Example 196, rac-2-[(4-amino-5-benzoyl-thiazol-2-yl)-(1,3-benzodioxol-5-yl)amino]propanamide]",128
5,"CC(C(N)=O)N(c1ccc2c(c1)OC(F)(F)O2)c1nc(N)c(C(=O)c2ccccc2)s1 (racemic) [Example 197, rac-2-[(4-amino-5-benzoyl-thiazol-2-yl)-(2,2-difluoro-1,3-benzodioxol-5-yl)amino]propanamide]",90
6,"CC(C(N)=O)N(c1ccc(OCc2ccccc2)cc1)c1nc(N)c(C(=O)c2ccccc2)s1 (racemic) [Example 199, rac-2-(N-(4-amino-5-benzoyl-thiazol-2-yl)-4-benzyloxy-anilino)propanamide]",396
7,"COc1ccc(C(=O)c2sc(N(c3ccc(OC(F)F)c(Cl)c3)C(C)C(N)=O)nc2N)cc1 (racemic) [Example 200, rac-2-[N-[4-amino-5-(4-methoxybenzoyl)thiazol-2-yl]-3-chloro-4-(difluoromethoxy)anilino]propanamide]",70
8,"CC(C(N)=O)N(c1ccc(OC(F)F)c(Cl)c1)c1nc(N)c(C(=O)c2ccc(OC(F)F)cc2)s1 (racemic) [Example 201, rac-2-[N-[4-amino-5-[4-(difluoromethoxy)benzoyl]thiazol-2-yl]-3-chloro-4-(difluoromethoxy)anilino]propanamide]",25
9,"CC(C(N)=O)N(c1ccc(OC(F)F)c(Cl)c1)c1nc(N)c(C(=O)c2ccc(Cl)cc2)s1 (racemic) [Example 202, rac-2-[N-[4-amino-5-(4-chlorobenzoyl)thiazol-2-yl]-3-chloro-4-(difluoromethoxy)anilino]propanamide]",69
10,"CC(C(N)=O)N(c1ccc(OC(F)F)c(Cl)c1)c1nc(N)c(C(=O)c2ccc(OC(F)F)nc2)s1 (racemic) [Example 204, rac-2-[N-[4-amino-5-[6-(difluoromethoxy)pyridine-3-carbonyl]thiazol-2-yl]-3-chloro-4-(difluoromethoxy)anilino]propanamide]",73
11,"CC(C(N)=O)N(c1ccc(OC(F)F)c(F)c1)c1nc(N)c(C(=O)c2ccc(OC(F)F)cc2)s1 (racemic) [Example 207, rac-2-[N-[4-amino-5-[4-(difluoromethoxy)benzoyl]thiazol-2-yl]-4-(difluoromethoxy)-3-fluoro-anilino]propanamide]",22
12,"CC(C(N)=O)N(c1ccc(OC(F)F)c(F)c1)c1nc(N)c(C(=O)c2ccc(OC(F)F)nc2)s1 (racemic) [Example 209, rac-2-[N-[4-amino-5-[6-(difluoromethoxy)pyridine-3-carbonyl]thiazol-2-yl]-4-(difluoromethoxy)-3-fluoro-anilino]propanamide]",45
13,"CC(C(N)=O)N(c1ccc(OC(F)F)c(F)c1)c1nc(N)c(C(=O)c2ccc(OC(F)F)nc2)s1 (racemic) [Example 210, rac-2-[N-[4-amino-5-[6-(difluoromethoxy)pyridine-3-carbonyl]thiazol-2-yl]-4-(difluoromethoxy)-3-fluoro-anilino]propanamide]",69
14,"COc1ccc(C(=O)c2sc(N(c3ccc4c(c3)OC(F)(F)O4)C(C)C(N)=O)nc2N)cc1 (racemic) [Example 212, rac-2-[[4-amino-5-(4-methoxybenzoyl)thiazol-2-yl]-(2,2-difluoro-1,3-benzodioxol-5-yl)amino]propanamide]",41
15,"CC(C(N)=O)N(c1ccc2c(c1)OC(F)(F)O2)c1nc(N)c(C(=O)c2ccc(Cl)cc2)s1 (racemic) [Example 213, rac-2-[[4-amino-5-(4-chlorobenzoyl)thiazol-2-yl]-(2,2-difluoro-1 ,3-benzodioxol-5-yl)amino]propanamide]",42
16,"CC(C(N)=O)N(c1ccc2c(c1)OC(F)(F)O2)c1nc(N)c(C(=O)c2ccc(OC(F)F)cc2)s1 (racemic) [Example 214, rac-2-[[4-amino-5-[4-(difluoromethoxy)benzoyl]thiazol-2-yl]-(2,2-difluoro-1,3-benzodioxol-5-yl)amino]propanamide]",16
17,"CC(C(N)=O)N(c1ccc2c(c1)OC(F)(F)O2)c1nc(N)c(C(=O)c2ccc(OC(F)F)nc2)s1 (racemic) [Example 216, rac-2-[[4-amino-5-[6-(difluoromethoxy)pyridine-3-carbonyl]thiazol-2-yl]-(2,2-difluoro-1,3-benzodioxol-5-yl)amino]propanamide]",32
